Experimental data: patent publication US12582689B2, “Use of terpenoids in the treatment or prevention of fibrotic diseases” (ARJIL BIOTECH HOLDING COMPANY LIMITED, priority 2020, dated 2026)

Experiments:
Format in all cases: in vivo
lung MPO activity = experiment: Bleomycin-induced pulmonary fibrosis in mice: lung myeloperoxidase (MPO) assay; conditions: BLM mice; compared with BLM group, p<0.001; FIG. 36
Procedure: (§1) Mice were divided into fifth groups with 5 animals per group according to body weight: control group, BLM group, BLM+DEX group (7.5 mg/kg), BLM+ACH dosage group (50 mg/kg), and BLM+ACM dosage group (2.5 mg/kg), BLM+ACH dosage group (50 mg/kg), and BLM+ACM dosage group (25 mg/kg) BLM+AH dosage group (50 mg/kg), and BLM+AM dosage group (25 mg/kg) BLM+BH dosage group (50 mg/kg), and BLM+BM dosage group (25 mg/kg) BLM+CH dosage group (50 mg/kg), and BLM+CM dosage group (25 mg/kg) BLM+DH dosage group (50 mg/kg), and BLM+DM dosage group (25 mg/kg) BLM+EH dosage group (50 mg/kg), and BLM+EM dosage group (25 mg/kg) BLM. Pulmonary fibrosis (PF) was established in mice via a single intratracheal administration of BLM at 7.5 mg/kg mg/kg body weight. Different doses of samples were intragastrically administered daily for 21 days after BLM injury, and DEX was used as the positive control. Control and model groups received an equal volume of vehicle (0.9% NaCl) using the same schedule and route of administration.
The pulmonary MPO activity was a reliable index for estimating the infiltration of inflammatory cells in lungs. The lung tissues were homogenized and the MPO levels were detected with the kits according to manufacturer's instruction.

[1] = test system: bleomycin-induced pulmonary fibrosis in mice; experiment: Bleomycin-induced pulmonary fibrosis in mice: body and lung weight, lung index, histopathology, hydroxyproline; conditions: BLM mice; for hydroxyproline (HP) content in lung tissue: extract 1.0 g/kg, compound high-dose groups (50 mg/kg), p<0.001, FIG. 34; for Pulmonary index [(lung weight/body weight)×100]: BLM group 1.60 ± 0.02
Procedure: (§2) Specific pathogen-free ICR mice (males) (body weights 18-22 g) were purchased from the BioLASCO Taiwan Co., Ltd. (Taipei, Taiwan). The animals were housed in Plexiglas cages at a constant temperature of 22±1° C. and a relative humidity of 55±5% on a 12 h dark-light cycle for at least 2 weeks before the experiment. Animals were provided food and water ad libitum. All experimental procedures were performed according to the guidelines of the Institutional Animal Ethics Committee, and the protocol was approved by the Committee for the Purpose of Control and Supervision of Experiments on Animals.
Pulmonary fibrosis (PF) was established in mice via a single intratracheal administration of BLM at 7.5 mg/kg mg/kg body weight. Different doses of samples were intragastrically administered daily for 21 days after BLM injury, and DEX was used as the positive control. Control and model groups received an equal volume of vehicle (0.9% NaCl) using the same schedule and route of administration.
Mouse body weights were recorded daily. Mice were sacrificed on the 21th day using excess chloral hydrate hydrochloride anesthesia. Blood was obtained for ELISA analyses, and whole lungs were removed and weighed. […] The pulmonary coefficient was calculated using the following equation: lung weight/body weight×100%

[2] = test system: TNF-α, IL-1β, IL-6 and TGF-β; experiment: Bleomycin-induced pulmonary fibrosis in mice: pro-inflammatory cytokines by ELISA; conditions: extract 1.0 g/kg, BH and DH (50 mg/kg), p<0.001, FIG. 35
Procedure: as §1, with “administration. […]” for “administration.”
The serum concentration of the pro-inflammatory cytokines (i.e. tumor necrosis factor-α (TNF-α), interleukin-6 (IL-6), and IL-1β) in serum were assessed with relevant enzyme-linked immunosorbent assay (ELISA) kits (Biosource International Inc., Sunnyvale, CA, USA), based on the manufacturer's instructions. […]

[3] = test system: TNF-α, IL-1β, IL-6 and TGF-β levels in serum; experiment: Cisplatin-induced renal injury mice: serum pro-inflammatory cytokines by ELISA; conditions: cisplatin-treated mice, extract at 1000 mg/kg, FIG. 4
Procedure: TNF-α, IL-6, and IL-1β cytokines in serum The serum concentration of the pro-inflammatory cytokines (i.e. tumor necrosis factor-α (TNF-α), interleukin-6 ([…]), and IL-1β) in serum are assessed with relevant enzyme-linked immunosorbent assay ([…]) kits (Biosource International Inc., Sunnyvale, CA, USA), based on the manufacturer's instructions.
as §2, with “Seven-to-eight-week-old male C57BL/6” for “Specific pathogen-free ICR”, “are obtained” for “(males) (body weights 18-22 g) were purchased”, “Ltd,” for “Ltd.”, “are” for “were”, “institutional” for “Institutional”, “is” for “was”
Renal fibrosis is induced via multiple injections of low-dose cisplatin. Intraperitoneal injections of cisplatin (5 mg/kg/injection; P4394, Sigma-Aldrich, St Louis, MO) are performed at 0, 1, and 3 weeks, for a total of 3 injections. Mice are sacrificed at 6 weeks after the first dose of cisplatin (n=6). To analyze the effects of samples, mice are given daily intraperitoneal injections for 7 days, starting from 4 weeks after first dose of cisplatin, and sacrificed at 4 weeks (n=6). […]

[4] = test system: cisplatin-induced renal injury in C57BL/6 mice; experiment: Mice model of cisplatin-induced renal injury: serum CRE/BUN and kidney histopathology; conditions: for renal protection: normalization of serum CRE and BUN: cisplatin-treated mice, extracts at 1000 mg/kg, compound doses not given, p<0.001 vs cisplatin group
Procedure: Determination of biochemical parameters Serum creatinine and serum urea are assessed using colorimetric kits according to manufacturer's instructions. Kits of the former markers are purchased from (HUMAN Diagnostics Worldwide, Magdeburg, Germany) with a chemical analyzer (Roche Diagnostics, Cobas Mira Plus, Rotkreuz, Switzerland).
Kidney histopathology The anterior portion of the […] from each mouse is fixed in 10% formaldehyde phosphate butler, embedded in paraffin, cut into 5 μm sections, and then treated with an hematoxylin and eosin (H&E) stain for histological examination under the light microscopy (Nikon, ECLIPSE, TS100, Tokyo, Japan). Images are captured with a digital camera (NIS-Elements D 2.30, SP4, Build 387) at an original magnification of 400×.
as §2, with “Seven-to-eight-week-old male C57BL/6” for “Specific pathogen-free ICR”, “are obtained” for “(males) (body weights 18-22 g) were purchased”, “Ltd,” for “Ltd.”, “are” for “were”, “institutional” for “Institutional”, “is” for “was”
Renal fibrosis is induced via multiple injections of low-dose cisplatin. Intraperitoneal injections of cisplatin (5 mg/kg/injection; P4394, Sigma-Aldrich, St Louis, MO) are performed at 0, 1, and 3 weeks, for a total of 3 injections. Mice are sacrificed at 6 weeks after the first dose of cisplatin (n=6). To analyze the effects of samples, mice are given daily intraperitoneal injections for 7 days, starting from 4 weeks after first dose of cisplatin, and sacrificed at 4 weeks (n=6).

[5] = test system: CCl4-induced chronic liver fibrosis in SD rats; experiment: CCl4-induced chronic liver fibrosis in rat
Procedure: Blood samples are collected at week 0, 2, 4, 6, and 8. The animals are sacrificed at the end of the 8-week for histopathological examinations. FIGS. 7A, 7B, 7C depict delta weight, liver weight, and liver/body-weight ratio, respectively.
The level of clinical biochemistry such as aspartate aminotransferase (AST), alanine aminotransferase (ALT), is evaluated to determine the enzymatic activities of the livers of the control groups and the experimental groups (shown in FIGS. 8A-8C).

Compound | lung MPO activity (lung MPO activity) | hydroxyproline (HP) content in lung tissue [1] | TNF-α, IL-1β, IL-6 and TGF-β production after BLM challenge [2] | renal protection: normalization of serum CRE and BUN [4] | other results
C=C(CC[C@@H](C)[C@H]1CC[C@H]2C3=C(C(=O)C[C@]12C)[C@@]1(C)CC[C@@H](O)[C@](C)(O)[C@@H]1C[C@@H]3O)[C@@H](C)C(=O)O (racemic) [AR101-DS1, RS-Antcin K] | evidently suppressed the MPO activities | – | – | – | –
C=C(CC[C@@H](C)[C@H]1CC[C@H]2C3=C(C(=O)C[C@]12C)[C@@]1(C)CC[C@@H](O)[C@](C)(O)[C@@H]1C[C@@H]3O)[C@@H](C)C(=O)O (stereo in doubt) [AR101-DS1, RS-Antcin K] | – | reduced lung HP | – | – | –
C=C1C(=O)O[C@H]2/C=C(\C)CC3C=C(CC/C=C(\C)CC[C@H]12)C(=O)O3 (stereo partly shown) [AR100-DS1, Ovatodiolide] | evidently suppressed the MPO activities | reduced lung HP | improved TNF-α, IL-1β, IL-6 and TGF-β production | significant renal protection effect | serum NO, TNF-α, IL-1β and IL-6 production after cisplatin challenge [3]: improved NO, TNF-α, IL-1β, and IL-6 production; kidney histopathology (H&E): necrosis and inflammatory infiltrating cells ([4]; cisplatin-stimulated mice, extract at 1000 mg/kg, FIG. 3): significantly improved necrosis and inflammatory infiltrating cells; liver weight ([5]; 50 mg/kg, SD rats, 8 weeks CCl4, compared to Vehicle and Naïve group): significantly larger; liver appearance ([5]; 50 mg/kg, after 8 weeks of CCl4 induction): smooth surface without atrophy and sclerosis; serum AST and ALT level ([5]; 50 mg/kg, at W6 and W8, compared with the vehicle group): less AST and ALT increases; CCl4-induced liver injury, overall ([5]; SD rats, 8 weeks CCl4): potential to partially repair CCl4-induced liver injury
C=C(CC[C@@H](C(=O)O)[C@H]1CC[C@@]2(C)C3=CC[C@H]4C(C)(C)[C@@H](O)CC[C@]4(C)C3=CC[C@]12C)C(C)C [AR101-DS4, Dehydroeburicoic Acid] | – | – | – | significant renal protection effect | –
Dehydrosulphurenic acid/Sulphurenic acid [AR101-DS2] | evidently suppressed the MPO activities | reduced lung HP | improved TNF-α, IL-1β, IL-6 and TGF-β production | – | Pulmonary index [(lung weight/body weight)×100] ([1]; 25 mg/kg daily for 21 days): 1.26 ± 0.03; Pulmonary index [(lung weight/body weight)×100] ([1]; 50 mg/kg daily for 21 days, 50 mg/kg): 1.01 ± 0.02; Pulmonary index [(lung weight/body weight)×100] ([1]; 50 mg/kg daily for 21 days, listed as BH, 50 mg/kg): significant decrease
